Measured values from PMC4057605 (Journal of immunology (Baltimore, Md. : 1950), 2013).

How the values were obtained:
HLA-A*01:03 monochain [1] = settings: mouse, in vivo, sc
HLA-A*01:03 monochain [2] = settings: mouse, in vivo
HLA-B*27:05 monochain [3] = test system: HLA-B*27:05 monochain; set-up: species or system mouse (HLA-B*27:05 monochain transgenic, H-2 class I null); settings: mouse, in vivo, sc
HLA-B*27:05 monochain [4] = test system: HLA-B*27:05 monochain; set-up: species or system mouse (HLA-B*27:05 monochain transgenic, H-2 class I null); settings: mouse, in vivo
HLA-B*44:02 monochain [5] = test system: HLA-B*44:02 monochain; set-up: species or system mouse (HLA-B*44:02 monochain transgenic, H-2 class I null); settings: mouse, in vivo, sc
HLA-B*44:02 monochain [6] = test system: HLA-B*44:02 monochain; set-up: species or system mouse (HLA-B*44:02 monochain transgenic, H-2 class I null); settings: mouse, in vivo
HLA-B*08:01 monochain [7] = test system: HLA-B*08:01 monochain; set-up: species or system mouse (HLA-B*08:01 monochain transgenic, H-2 class I null); settings: mouse, in vivo, sc
HLA-B*08:01 monochain [8] = test system: HLA-B*08:01 monochain; set-up: species or system mouse (HLA-B*08:01 monochain transgenic, H-2 class I null); settings: mouse, in vivo

EADPTGHSY
CD8+ T cell IFN-γ responses after peptide immunization (HLA-A*01:03 monochain [1]): 287/212/123/27 Spots/10^6 Cells
CD8+ T cell IFN-γ responses after DNA immunization (HLA-A*01:03 monochain [2]): 118/91/86/38 Spots/10^6 Cells

LRGKWQRRYR
CD8+ T cell IFN-γ responses after peptide immunization (HLA-B*27:05 monochain [3]): 113/61/54/23 Spots/10^6 Cells
CD8+ T cell IFN-γ responses after DNA immunization (HLA-B*27:05 monochain [4]): 221/213/189/13 Spots/10^6 Cells

FEDLRVLSF
CD8+ T cell IFN-γ responses after peptide immunization (HLA-B*44:02 monochain [5]): 167/61/30/17/8 Spots/10^6 Cells
CD8+ T cell IFN-γ responses after DNA immunization (HLA-B*44:02 monochain [6]): 66/44/0/0 Spots/10^6 Cells

WLKIKRDYL
CD8+ T cell IFN-γ responses after peptide immunization (HLA-B*08:01 monochain [7]): 524/103/97/74/64/0 Spots/10^6 Cells
CD8+ T cell IFN-γ responses after DNA immunization (HLA-B*08:01 monochain [8]): 327/46/39/21/21/11 Spots/10^6 Cells

SRYWAIRTR
CD8+ T cell IFN-γ responses after peptide immunization (HLA-B*27:05 monochain [3]): 567/459/110/0 Spots/10^6 Cells
CD8+ T cell IFN-γ responses after DNA immunization (HLA-B*27:05 monochain [4]): 917/890/411/241 Spots/10^6 Cells

EENLLDFVRF
CD8+ T cell IFN-γ responses after peptide immunization (HLA-B*44:02 monochain [5]): 54/28/27/20/0 Spots/10^6 Cells
CD8+ T cell IFN-γ responses after DNA immunization (HLA-B*44:02 monochain [6]): 134/87/0/0 Spots/10^6 Cells

VSDGGPNLY
CD8+ T cell IFN-γ responses after peptide immunization (HLA-A*01:03 monochain [1]): 201/134/71/59 Spots/10^6 Cells
CD8+ T cell IFN-γ responses after DNA immunization (HLA-A*01:03 monochain [2]): 265/169/105 Spots/10^6 Cells

AENGWGFYF
CD8+ T cell IFN-γ responses after peptide immunization (HLA-B*44:02 monochain [5]): 60/41/29/12/9 Spots/10^6 Cells
CD8+ T cell IFN-γ responses after DNA immunization (HLA-B*44:02 monochain [6]): 91/63/46/0 Spots/10^6 Cells
